Drawing on ChEMBL document CHEMBL4402558, “Designing Chimeric Molecules for Drug Discovery by Leveraging Chemical Biology” (J Med Chem, 2020), this text covers Activity for one compound.

For this assay, the species on record is Homo sapiens. Nature of the assay: Antitumour activity against human DLBCL patients assessed as response rate co-treatment with rituximab relative to control. Type of assay: functional.

As to `Cn1c(CCCC(=O)O)nc2cc(N(CCCl)CCCl)ccc21`, the Activity was found to be 18%.
